Source: patent publication US20210340563A1, “DONOR T-CELLS WITH KILL SWITCH” (CSL BEHRING LLC, priority 2018, published 2021)

Assays:
CEM cells [1] = experiment: negative selection with MTX or MPA on CEM cells; format: cell-based; conditions: 1 μM of MPA or 0.3 μM of MTX or 10 μM of MPA; for GFP-population of transduced cells under MPA or MTX: CEM experiment
K562 cells [2] = experiment: negative selection with MTX on K562 cells; format: cell-based, human; conditions: 0.3 μM of MTX, day 0 to day 14
Description: Transduced or transfected K562 cells (such as those from Example 1) were cultured with or without MTX from day 0 to day 14. The medium was refreshed every 3 to 4 days. GFP was analyzed on a flow machine and the InDel % was analyzed by T7E1 assay. […] On the other hand, the population of cells was steady without MTX. FIG. 14B illustrates that the transfected K562 cells were eliminated under treatment with 0.3 μM of MTX at a faster pace as compared with the HPRT-knockdown population.
K562 cells were transduced with either (i) a TL20cw-GFP virus soup at dilution factor of 16, (ii) a TL20cw-Ubc/GFP-7SK/sh734 virus soup at a dilution factor of 16 (one sequentially encoding GFP and a shRNA designed to knockdown HPRT); or (iii) a TL20cw-7SK/sh734-UBC/GFP virus soup at a dilution factor of 16 (one sequentially encoding a shRNA designed to knockdown HPRT and GFP) (see FIG. 16). K562 cells were also transduced by a TL20cw-7SK/sh734-UBC/GFP virus soup at a dilution factor of 1024 (one encoding a nucleic acid encoding a shRNA designed to knockdown HPRT) (also shown in FIG. 16). Three days following transduction, all cells were cultured with medium containing 0.3 μM of MTX 3. […] The relative sh734 expression per vector copy number (VCN) for sh734-GFP-transduced cells and GFP-sh734-transduced cells were measured.

CEM cells [3] = experiment: 6TG selection of HPRT knockdown/knockout CEM cells; format: cell-based
Description: CEM cells were transduced with an expression vector including a nucleic acid sequence designed to knockdown HPRT and a nucleic acid sequence encoding the green fluorescent protein or transfected with a nanocapsule including CRISPR/Cas9 and a sgRNA to HPRT at day 0. 6TG was added into the medium from day 3 to day 17. The medium was refreshed every 3 to 4 days. GFP as analyzed on a flow machine and the InDel % is analyzed by a T7E1 assay. FIG. 13A illustrates that the GFP+ population of transduced K562 cells increased from day 3 to day 17 under treatment of 6TG while GFP+ population was almost steady without. […] It should be noted that 6TG selection process occurred faster on HPRT knockout cells rather than HPRT knockdown cells (MOI=1) at the same concentration of 6TG from day 3 to day 17.

Jurkat cells [4] = experiment: 6-TG resistance of HPRT knockout Jurkat cells, luminescence (ATP detection) cell viability; format: cell-based
Description: (§1) Jurkat cells were electroporated with a ribonucleoprotein (RNP) complex containing guide RNA (gRNA; GS-4; designated IDT-4) together with the Cas9 and tracrRNA. Cells which were confirmed to be transfected with the gRNA via tracr RNA were purified using fluorescence activated cells sorting (FACS) and subsequently cultured for 72 hours. Increasing concentrations of 6-thioguanine (6-TG) were then administered to the transduced cultured cells to assess resistance. Wild type (unmodified) Jurkat cells were used as a control.
Luminescence (ATP detection) was used to assess cell viability.

K562 cells [5] = experiment: ex vivo 6TG selection of HPRT knockdown/knockout K562 cells; format: cell-based, human
Description: These initial preliminary experiments were performed in K562 cells (human immortalized myelogenous leukemia line) (rsh7-GFP=short hairpin to HPRT/GFP lentiviral vector to knockdown HPRT; nanoRNP-HPRT=CRISPR/Cas9 ribonucleoprotein nanocapsules to knockout HPRT).
K562 cells were transduced with an expression vector including a nucleic acid sequence designed to knockdown HPRT and a nucleic acid sequence encoding the green fluorescent protein (GFP) (MOI=1/2/5); or were transfected with a nanocapsule including CRISPR/Cas9 and a sgRNA to knockout HPRT (100 ng/5×10^4 cells) at day zero (0). 6TG was added into the medium from day 3 through day 14. The medium was refreshed every 3 to 4 days. GFP was analyzed on a flow machine and the InDel % as analyzed with a T7E1 assay.

Jurkat cells [6] = experiment: methotrexate dose response of HPRT knockout Jurkat cells; format: cell-based; conditions: MTX 0.00625 and 0.0125 μM, cultured for 5 days
Description: Jurkat cells (unmodified; WT) were cultured with increasing concentrations of methotrexate (MTX) to determine the MTX dosage window required to kill WT cells (see FIG. 28). A dose range of between 0.00625 and 0.025 μM MTX was selected for subsequent assessment of HPRT Knockout (IDT-4 modified) Jurkat cells.
Dose response of HPRT Knockout (IDT-4 modified) Jurkat cells to MTX was compared to unmodified Jurkat cells (WT) to determine sensitivity to MTX (see FIG. 29).

HPRT protein = experiment: Western blot for HPRT protein in Jurkat cells; format: cell-based; conditions: modified Jurkat cells; actin loading control
Description: as §1
Unmodified (WT) and IDT-4 modified Jurkat cells were also analyzed for HPRT protein using Western blot (see FIG. 25). […] Actin protein detection (bottom panel) was used as a protein loading control.

[7] = 900 nM of 6TG compared with 300/600 nM of 6TG

Molecule: CN(Cc1cnc2nc(N)nc(N)c2n1)c1ccc(C(=O)N[C@@H](CCC(=O)O)C(=O)O)cc1 [MTX, methotrexate]
- HPRT knockout population of CEM cells under MPA or MTX (CEM cells [1]): eliminated at a faster pace
- GFP-population of transduced cells under MPA or MTX (CEM cells [1]): decreased
- GFP-population of transduced K562 cells under MTX (K562 cells [2]): decreased
- transfected (HPRT knockout) K562 cells under MTX (K562 cells [2]): eliminated

Molecule: Nc1nc2nc[nH]c2c(=S)[nH]1 [Vector 6TG, 6-thioguanine]
- speed of selection of HPRT knockout CEM cells (CEM cells [3]; [7]): faster selection
- GFP+ population of transduced cells under treatment of 6TG (CEM cells [3]; CEM experiment, day 3 to day 17): increased
- HPRT knockout population of CEM cells under treatment of 6TG (CEM cells [3]; day 3 to 17): increased
- cell viability (luminescence) of unmodified (wild type) Jurkat cells (Jurkat cells [4]; increasing concentrations of 6-TG): decrease in cell viability
- speed of selection of HPRT knockout K562 cells (K562 cells [5]; [7]): faster selection
- HPRT knockout population of K562 cells under treatment with 6TG (InDel %, T7E1 assay) (K562 cells [5]; CRISPR/Cas9 nanocapsule transfected, day 3 to 14): increased
- GFP+ population of transduced K562 cells under treatment of 6TG (K562 cells [5]; HPRT knockdown vector with GFP, day 3 to day 14): increased

Molecule: COc1c(C)c2c(c(O)c1C/C=C(\C)CCC(=O)O)C(=O)OC2 [MPA, mycophenolic acid]
- HPRT knockout population of CEM cells under MPA or MTX (CEM cells [1]): eliminated at a faster pace
- GFP-population of transduced cells under MPA or MTX (CEM cells [1]): decreased

Molecule: IDT-4: lead HPRT guide RNA, SEQ ID NO: 36, GGTTATGACCTTGATTTATT; used as Cas9 RNP (used with tracrRNA as Cas9 RNP, further chemistry not given here)
- sensitivity to MTX compared to wild type Jurkat cells (Jurkat cells [6]): increased sensitivity to MTX
- cell viability (luminescence) of gRNA-modified Jurkat cells with increasing 6-TG (Jurkat cells [4]; 6-TG tested up to 10 uM): resistance to increasing doses of 6-TG
- HPRT protein level by Western blot (HPRT protein): undetectable levels of HPRT
